Experimental data: ChEMBL document CHEMBL4177668, “Synthesis and biological evaluation of thiazole derivatives as GPR119 agonists” (Bioorg Med Chem Lett, 2017)
The source made the active and inactive calls. No cut-off for these calls is given here.

Experiments:
[1] = target: T1, Glucose-dependent insulinotropic receptor (Homo sapiens) (UniProt Q8TDV5); assay: Activation of human GPR119 expressed in CHOK1 cells co-expressing CRE-luciferase at 1 uM after 6 hrs by luciferase reporter gene assay relative to GSK1292263; type: functional, cell-based
T1 sequence (whole entry): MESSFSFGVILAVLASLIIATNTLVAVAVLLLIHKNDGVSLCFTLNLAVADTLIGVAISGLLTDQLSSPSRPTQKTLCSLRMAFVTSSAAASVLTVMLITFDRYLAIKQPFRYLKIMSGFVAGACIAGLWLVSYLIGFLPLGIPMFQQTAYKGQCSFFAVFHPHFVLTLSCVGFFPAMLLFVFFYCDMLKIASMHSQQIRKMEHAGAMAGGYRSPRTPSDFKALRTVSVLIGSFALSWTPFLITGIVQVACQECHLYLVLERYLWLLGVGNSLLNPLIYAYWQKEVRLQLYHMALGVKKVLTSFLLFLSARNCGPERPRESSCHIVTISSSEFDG

[2] = target: T2, Glucose-dependent insulinotropic receptor (Homo sapiens, UniProt Q8TDV5); assay: Agonist activity at human GPR119 expressed in CHOK1 cells co-expressing CRE-luciferase after 6 hrs by luciferase reporter gene assay; type: functional, cell-based
T2 sequence (Q8TDV5 whole entry): T1 sequence (whole entry)

[3] = Metabolic stability in rat liver microsomes assessed as compound remaining after 30 mins; type: ADME, microsome; conditions: read-out: Stability
NIH3T3 = assay: Cytotoxicity against mouse NIH/3T3 cells; type: cell-based
Cytochrome P450 1A2 = target: T3, Cytochrome P450 1A2 (Homo sapiens, UniProt P05177); assay: Inhibition of CYP1A2 (unknown origin); type: ADME
T3 sequence (P05177 whole entry): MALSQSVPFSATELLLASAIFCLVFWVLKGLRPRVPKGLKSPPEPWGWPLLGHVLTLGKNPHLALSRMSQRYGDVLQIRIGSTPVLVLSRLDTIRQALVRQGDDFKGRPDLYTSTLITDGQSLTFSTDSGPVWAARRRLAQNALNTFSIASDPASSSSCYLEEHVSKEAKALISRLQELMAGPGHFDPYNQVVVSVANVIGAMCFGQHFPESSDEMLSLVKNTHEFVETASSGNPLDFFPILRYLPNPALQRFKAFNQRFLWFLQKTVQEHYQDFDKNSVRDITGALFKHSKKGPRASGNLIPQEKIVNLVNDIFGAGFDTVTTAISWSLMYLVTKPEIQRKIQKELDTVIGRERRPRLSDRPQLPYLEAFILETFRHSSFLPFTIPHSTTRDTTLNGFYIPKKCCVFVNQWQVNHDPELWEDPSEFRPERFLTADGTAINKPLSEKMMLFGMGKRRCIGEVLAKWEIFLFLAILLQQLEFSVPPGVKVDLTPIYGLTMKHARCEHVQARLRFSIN

HFL1 = assay: Cytotoxicity against HFL1 cells; type: cell-based; conditions: Homo sapiens
[4] = Metabolic stability in human liver microsomes assessed as compound remaining after 30 mins; type: ADME, microsome; conditions: read-out: Stability
Vero = assay: Cytotoxicity against African green monkey Vero cells; type: cell-based; conditions: Chlorocebus sabaeus
Cytochrome P450 2A6 = target: T4, Cytochrome P450 2A6 (Homo sapiens, UniProt P11509); assay: Inhibition of CYP2A6 (unknown origin); type: ADME
T4 sequence (P11509 whole entry): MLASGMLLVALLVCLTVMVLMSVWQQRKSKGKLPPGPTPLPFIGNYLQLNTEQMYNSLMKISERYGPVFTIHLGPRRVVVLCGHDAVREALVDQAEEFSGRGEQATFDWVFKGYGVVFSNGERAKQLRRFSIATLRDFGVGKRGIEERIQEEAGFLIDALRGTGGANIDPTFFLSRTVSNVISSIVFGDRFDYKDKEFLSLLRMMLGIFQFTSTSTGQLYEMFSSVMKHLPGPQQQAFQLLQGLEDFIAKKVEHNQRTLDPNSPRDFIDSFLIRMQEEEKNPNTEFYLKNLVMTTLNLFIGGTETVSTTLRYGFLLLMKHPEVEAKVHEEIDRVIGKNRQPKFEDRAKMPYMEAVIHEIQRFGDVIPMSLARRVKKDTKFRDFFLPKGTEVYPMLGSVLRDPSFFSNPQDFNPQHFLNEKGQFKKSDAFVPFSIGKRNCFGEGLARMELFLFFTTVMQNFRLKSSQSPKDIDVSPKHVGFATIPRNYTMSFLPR

hERG (KCNH2) = hERG (KCNH2) (Homo sapiens, UniProt Q12809); assay: Inhibition of human ERG at 10 uM
Mus musculus = assay: Antidiabetic activity in C57BL/6 mouse assessed as decrease in plasma glucose AUC at 30 mg/kg, po pretreated for 30 mins followed by glucose challenge measured up to 120 mins by oGTT assay; type: functional, organism-based
Cytochrome P450 2D6 = Cytochrome P450 2D6 (Homo sapiens, UniProt P10635); assay: Inhibition of CYP2D6 (unknown origin); type: ADME
Cytochrome P450 2C19 = Cytochrome P450 2C19 (Homo sapiens, UniProt P33261); assay: Inhibition of CYP2C19 (unknown origin); type: ADME
L929 = assay: Cytotoxicity against mouse L929 cells; type: cell-based
CHO-K1 = assay: Cytotoxicity against CHOK1 cells; type: cell-based; conditions: Cricetulus griseus
Cytochrome P450 3A4 = Cytochrome P450 3A4 (Homo sapiens, UniProt P08684); assay: Inhibition of CYP3A4 (unknown origin); type: ADME
Sequence of Cytochrome P450 3A4 (P08684 whole entry): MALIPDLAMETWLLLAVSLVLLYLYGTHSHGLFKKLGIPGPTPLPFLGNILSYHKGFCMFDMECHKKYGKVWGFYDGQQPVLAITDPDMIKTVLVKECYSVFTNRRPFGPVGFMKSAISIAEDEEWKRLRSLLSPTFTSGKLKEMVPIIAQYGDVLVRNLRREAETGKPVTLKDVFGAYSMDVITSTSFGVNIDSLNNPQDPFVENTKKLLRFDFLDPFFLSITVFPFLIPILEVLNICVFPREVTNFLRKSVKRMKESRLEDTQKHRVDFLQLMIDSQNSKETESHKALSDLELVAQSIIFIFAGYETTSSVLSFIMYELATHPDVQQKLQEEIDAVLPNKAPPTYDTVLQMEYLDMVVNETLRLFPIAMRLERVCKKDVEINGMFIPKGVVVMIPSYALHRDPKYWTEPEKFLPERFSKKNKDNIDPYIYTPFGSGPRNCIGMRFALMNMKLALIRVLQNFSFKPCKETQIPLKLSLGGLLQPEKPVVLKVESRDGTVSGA

Sequence of Cytochrome P450 2C19 (P33261 whole entry): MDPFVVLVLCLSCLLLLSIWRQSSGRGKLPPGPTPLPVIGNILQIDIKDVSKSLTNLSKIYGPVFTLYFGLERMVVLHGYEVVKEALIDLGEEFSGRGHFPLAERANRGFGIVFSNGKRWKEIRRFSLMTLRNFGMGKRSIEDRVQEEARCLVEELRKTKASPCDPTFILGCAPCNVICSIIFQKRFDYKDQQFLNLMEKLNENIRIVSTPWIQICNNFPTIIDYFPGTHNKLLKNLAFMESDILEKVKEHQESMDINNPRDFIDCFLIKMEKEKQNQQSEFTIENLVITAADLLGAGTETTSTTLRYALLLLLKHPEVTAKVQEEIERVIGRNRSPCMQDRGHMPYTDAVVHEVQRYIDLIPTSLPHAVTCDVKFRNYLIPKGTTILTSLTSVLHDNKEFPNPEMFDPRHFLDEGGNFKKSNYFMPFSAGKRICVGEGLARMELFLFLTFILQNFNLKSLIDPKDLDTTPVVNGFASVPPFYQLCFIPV
Sequence of hERG (KCNH2) (Q12809 whole entry): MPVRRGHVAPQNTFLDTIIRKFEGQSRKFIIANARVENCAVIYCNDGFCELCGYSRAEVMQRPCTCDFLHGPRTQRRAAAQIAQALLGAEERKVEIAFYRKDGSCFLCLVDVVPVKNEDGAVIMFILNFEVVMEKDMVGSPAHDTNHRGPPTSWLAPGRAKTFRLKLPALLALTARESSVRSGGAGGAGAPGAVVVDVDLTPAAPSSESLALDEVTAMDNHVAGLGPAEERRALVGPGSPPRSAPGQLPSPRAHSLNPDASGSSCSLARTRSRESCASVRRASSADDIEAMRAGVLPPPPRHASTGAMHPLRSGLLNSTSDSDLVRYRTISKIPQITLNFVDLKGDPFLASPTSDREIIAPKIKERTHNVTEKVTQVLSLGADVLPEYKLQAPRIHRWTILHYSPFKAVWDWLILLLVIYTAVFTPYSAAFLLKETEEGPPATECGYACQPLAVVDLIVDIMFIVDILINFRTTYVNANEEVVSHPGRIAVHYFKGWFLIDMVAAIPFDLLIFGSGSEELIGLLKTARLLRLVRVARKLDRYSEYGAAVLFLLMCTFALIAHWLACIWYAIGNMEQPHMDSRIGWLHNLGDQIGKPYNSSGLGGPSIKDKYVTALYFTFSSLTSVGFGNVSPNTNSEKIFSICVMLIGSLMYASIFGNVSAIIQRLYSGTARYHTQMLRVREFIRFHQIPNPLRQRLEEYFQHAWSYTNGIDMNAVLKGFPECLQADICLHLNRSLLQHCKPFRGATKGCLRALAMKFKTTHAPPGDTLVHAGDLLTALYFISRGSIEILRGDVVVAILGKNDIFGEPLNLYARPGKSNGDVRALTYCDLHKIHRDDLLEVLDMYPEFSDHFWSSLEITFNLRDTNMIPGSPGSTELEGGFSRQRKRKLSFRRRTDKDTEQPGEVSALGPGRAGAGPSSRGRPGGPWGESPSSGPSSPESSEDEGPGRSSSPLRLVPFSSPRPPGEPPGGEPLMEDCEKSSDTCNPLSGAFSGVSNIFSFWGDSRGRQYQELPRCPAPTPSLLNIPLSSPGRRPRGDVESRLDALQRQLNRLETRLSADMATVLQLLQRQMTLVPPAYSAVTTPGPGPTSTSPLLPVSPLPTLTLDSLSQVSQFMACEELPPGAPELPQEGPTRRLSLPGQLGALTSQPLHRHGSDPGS
Sequence of Cytochrome P450 2D6 (P10635 whole entry): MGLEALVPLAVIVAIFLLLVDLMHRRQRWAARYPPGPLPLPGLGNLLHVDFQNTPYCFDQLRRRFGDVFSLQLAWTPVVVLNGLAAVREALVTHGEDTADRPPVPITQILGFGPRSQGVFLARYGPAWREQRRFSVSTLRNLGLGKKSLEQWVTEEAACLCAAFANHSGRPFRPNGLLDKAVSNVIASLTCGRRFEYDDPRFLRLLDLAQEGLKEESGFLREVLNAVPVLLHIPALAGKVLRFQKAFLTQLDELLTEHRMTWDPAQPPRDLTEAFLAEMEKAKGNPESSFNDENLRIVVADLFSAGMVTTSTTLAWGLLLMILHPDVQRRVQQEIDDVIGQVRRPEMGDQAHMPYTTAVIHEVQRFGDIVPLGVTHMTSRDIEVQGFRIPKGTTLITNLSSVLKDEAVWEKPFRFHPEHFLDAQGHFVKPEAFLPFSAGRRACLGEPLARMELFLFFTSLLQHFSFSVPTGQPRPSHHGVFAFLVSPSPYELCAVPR

Compound `CC(C)(C)OC(=O)N1CCC(c2nc(COc3ccc(/C=C4\CC(=O)NC4=O)cc3)cs2)CC1` has an Activity [1] of 57%.
In the case of `CCc1cnc(N2CCC(c3nc(COc4ccc(/C=C5\CC(=O)N(CCNC(=O)OC(C)(C)C)C5=O)cc4F)cs3)CC2)nc1`, the Activity [1] is reported as 63%.
`[N-]=[N+]=NCCOCCOCCOCCNC(=O)CCc1cnc(N2CCC(c3nc(COc4ccc(-n5cnnn5)cc4)cs3)CC2)nc1` showed an Activity [1] of 25%.
In the case of `CC(C)(C)OC(=O)N1CCC(c2nc(COc3ccc(-n4cnnn4)cc3)cs2)CC1`, the Activity [1] is reported as 118% and the EC50 [2] is reported as 103 nM.
`CC(C)(F)CN1CCC(c2nc(COc3c(F)cc(/C=C4\CC(=O)NC4=O)cc3F)cs2)CC1` gave an Activity [1] of 42%.
With `C[N+](C)(C)CCNC(=O)CCc1cnc(N2CCC(c3nc(COc4ccc(-n5cnnn5)cc4)cs3)CC2)nc1` the Activity [1] was 28%.
Work on `CCc1cnc(N2CCC(c3nc(COc4ccc(/C=C/C(=O)O)cc4F)cs3)CC2)nc1` yielded an Activity [1] of 55%.
`CCc1cnc(N2CCC(c3nc(COc4ccc(/C=C5\SC(=S)NC5=O)cc4F)cs3)CC2)nc1` showed an Activity [1] of 39%.
`CCc1cnc(N2CCC(c3nc(COc4ccc(/C=C5\CC(=O)N(CC6CCOCC6)C5=O)cc4F)cs3)CC2)nc1` gave an Activity [1] of 61% and an EC50 [2] of 240 nM.
Work on `NCCNC(=O)CCc1cnc(N2CCC(c3nc(COc4ccc(-n5cnnn5)cc4)cs3)CC2)nc1` yielded an Activity [1] of 27%.
For `CCc1cnc(N2CCC(c3nc(COc4ccc(/C=C5\SC(=S)N(N)C5=O)cc4F)cs3)CC2)nc1`, the Activity [1] was 43%.
With `NC(=O)CCc1cnc(N2CCC(c3nc(COc4ccc(-n5cnnn5)cc4)cs3)CC2)nc1` the Activity [1] was 22%.
`O=C(CCc1cnc(N2CCC(c3nc(COc4ccc(-n5cnnn5)cc4)cs3)CC2)nc1)NOCc1ccccc1` showed an Activity [1] of 26%.
Compound `CC(C)(C)OC(=O)N1CCC(c2nc(COc3c(F)cc(/C=C4\CC(=O)NC4=O)cc3F)cs2)CC1` has an Activity [1] of 41%.
In the case of `Cc1cc(/C=C2\CC(=O)NC2=O)ccc1OCc1csc(C2CCN(CC(C)(C)O)CC2)n1`, the Activity [1] is reported as 36%.
With `NCCOCCOCCOCCNC(=O)CCc1cnc(N2CCC(c3nc(COc4ccc(-n5cnnn5)cc4)cs3)CC2)nc1` the Activity [1] was 28%.
For `CC(C)(C)OC(=O)N1CCC(c2nc(COc3ccc(/C=C4\CC(=O)NC4=O)cc3F)cs2)CC1`, the Activity [1] was 69% and the EC50 [2] was 157 nM.
Work on `O=C(O)CCc1cnc(N2CCC(c3nc(COc4ccc(-n5cnnn5)cc4)cs3)CC2)nc1` yielded an Activity [1] of 29%.
`CCc1cnc(N2CCC(c3nc(COc4ccc(/C=C5\CC(=O)N(c6ccccc6)C5=O)cc4F)cs3)CC2)nc1` showed an Activity [1] of 67% and an EC50 [2] of 82 nM.
`CCc1cnc(N2CCC(c3nc(COc4ccc(-n5cnnn5)cc4)cs3)CC2)nc1` [MBX-2982] gave an Activity [1] of 91%, a remaining at 0.5 h [3] of 20.6% and an IC50 (NIH3T3) of over 100000 nM. The INH (Cytochrome P450 1A2) was over 100 µM, the IC50 (HFL1) was over 100000 nM and the remaining at 0.5 h [4] was 7.8%. For the same compound, the IC50 (Vero) was over 100000 nM, the INH (Cytochrome P450 2A6) was 3.53 µM and the inhibition at 10 µM (hERG (KCNH2)) was 10.5%. For the same compound, the Activity (Mus musculus) was “Active”, the INH (Cytochrome P450 2D6) was over 100 µM and the INH (Cytochrome P450 2C19) was over 100 µM. It also gave an EC50 [2] of 87 nM, an IC50 (L929) of over 100000 nM and an IC50 (CHO-K1) of over 100000 nM. The INH (Cytochrome P450 3A4) was 2.24 µM.
With `CC(C)(F)CN1CCC(c2nc(COc3ccc(/C=C4\CC(=O)NC4=O)cc3)cs2)CC1` the Activity [1] was 48%.
For `CCc1cnc(N2CCC(c3nc(COc4ccc(/C=C5\CC(=O)NC5=O)cc4F)cs3)CC2)nc1`, the Activity [1] was 94%, the remaining at 0.5 h [3] was 33% and the IC50 (NIH3T3) was over 100000 nM. For the same compound, the INH (Cytochrome P450 1A2) was over 100 µM, the IC50 (HFL1) was over 100000 nM and the remaining at 0.5 h [4] was 48.9%. The IC50 (Vero) was over 100000 nM, the INH (Cytochrome P450 2A6) was over 100 µM and the inhibition at 10 µM (hERG (KCNH2)) was 5.3%. The Activity (Mus musculus) was “Active”, the INH (Cytochrome P450 2D6) was over 100 µM and the INH (Cytochrome P450 2C19) was over 100 µM. It also gave an EC50 [2] of 49 nM, an IC50 (L929) of over 100000 nM and an IC50 (CHO-K1) of over 100000 nM. The INH (Cytochrome P450 3A4) was over 100 µM.
For `CCc1cnc(N2CCC(c3nc(COc4ccc(/C=C5\CC(=O)N(CCN)C5=O)cc4F)cs3)CC2)nc1`, the Activity [1] was 51%.
With `CCc1cnc(N2CCC(c3nc(COc4ccc(/C=C5\CC(=S)N(CC(=O)O)C5=O)cc4F)cs3)CC2)nc1` the Activity [1] was 32%.
With `CCc1cnc(N2CCC(c3nc(COc4ccc(/C=C5\CC(=O)NC5=O)cc4)cs3)CC2)nc1` the Activity [1] was 71% and the EC50 [2] was 182 nM.
With `CCc1cnc(N2CCC(c3nc(COc4ccc(/C=C5\SC(=O)NC5=O)cc4F)cs3)CC2)nc1` the Activity [1] was 60% and the EC50 [2] was 780 nM.
Compound `CCc1cnc(N2CCC(c3nc(COc4ccc(/C=C5\CCNC5=O)cc4F)cs3)CC2)nc1` has an Activity [1] of 65% and an EC50 [2] of 100 nM.
`CC(C)(O)CN1CCC(c2nc(COc3c(F)cc(/C=C4\CC(=O)NC4=O)cc3F)cs2)CC1` showed an Activity [1] of 32%.
`CC(C)(O)CN1CCC(c2nc(COc3ccc(/C=C4\CC(=O)NC4=O)cc3F)cs2)CC1` showed an Activity [1] of 31%.
`CCc1cnc(N2CCC(c3nc(COc4ccc(/C=C5\CC(=O)N(CCN6CCOCC6)C5=O)cc4F)cs3)CC2)nc1` showed an Activity [1] of 49%.
`CCc1cnc(N2CCC(c3nc(COc4ccc(/C=C5\CC(=O)NC5=O)cc4C)cs3)CC2)nc1` gave an Activity [1] of 90%, a remaining at 0.5 h [3] of 32.4% and an IC50 (NIH3T3) of over 100000 nM. For the same compound, the INH (Cytochrome P450 1A2) was over 100 µM, the IC50 (HFL1) was over 100000 nM and the remaining at 0.5 h [4] was 17.1%. It also gave an IC50 (Vero) of over 100000 nM, an INH (Cytochrome P450 2A6) of over 100 µM and an inhibition at 10 µM (hERG (KCNH2)) of 3.3%. The Activity (Mus musculus) was “Active”, the INH (Cytochrome P450 2D6) was over 100 µM and the INH (Cytochrome P450 2C19) was over 100 µM. The EC50 [2] was 18 nM, the IC50 (L929) was over 100000 nM and the IC50 (CHO-K1) was over 100000 nM. It also gave an INH (Cytochrome P450 3A4) of over 13.8 µM.
For `CCOC(=O)CCc1cnc(N2CCC(c3nc(COc4ccc(-n5cnnn5)cc4)cs3)CC2)nc1`, the Activity [1] was 34%.
`CC(C)(C)OC(=O)NCCNC(=O)CCc1cnc(N2CCC(c3nc(COc4ccc(-n5cnnn5)cc4)cs3)CC2)nc1` showed an Activity [1] of 30%.
With `Cc1cc(/C=C2\CC(=O)NC2=O)ccc1OCc1csc(C2CCN(CC(C)(C)F)CC2)n1` the Activity [1] was 46%.
`N=C(N)NC(=N)N1CCC(c2nc(COc3ccc(-n4cnnn4)cc3)cs2)CC1` showed an Activity [1] of 20%.
Work on `CC(C)(F)CN1CCC(c2nc(COc3ccc(/C=C4\CC(=O)NC4=O)cc3F)cs2)CC1` yielded an Activity [1] of 53%.
For `CCc1cnc(N2CCC(c3nc(COc4c(F)cc(/C=C5\CC(=O)NC5=O)cc4F)cs3)CC2)nc1`, the Activity [1] was 59% and the EC50 [2] was 211 nM.
Work on `Cc1cc(/C=C2\CC(=O)NC2=O)ccc1OCc1csc(C2CCN(C(=O)OC(C)(C)C)CC2)n1` yielded an Activity [1] of 81% and an EC50 [2] of 19 nM.
In the case of `CC(C)(O)CN1CCC(c2nc(COc3ccc(/C=C4\CC(=O)NC4=O)cc3)cs2)CC1`, the Activity [1] is reported as 27%.
